Laboratory results as given in ChEMBL document CHEMBL1152576, “E-Combretastatin and E-resveratrol structural modifications: antimicrobial and cancer cell growth inhibitory beta-E-nitrostyrenes” (Bioorg Med Chem, 2009).
Converted amounts (≈) assume the structure as drawn. The source made the active and inactive calls. The calls are words filed in the database; no cut-off is given here.

system: Cryptococcus neoformans; test: Antimicrobial activity against Cryptococcus neoformans ATCC 90112 assessed clear zone in inhibition per disk by CLSI disk diffusion susceptibility assay; format: functional; details: not given

SMILES | MIC
CC(=O)Nc1ccc(/C=C/[N+](=O)[O-])cc1 | <6.25 µg
COc1cc(OC)c(/C=C/[N+](=O)[O-])c(OC)c1 | >100 µg
COc1ccc(/C=C/[N+](=O)[O-])cc1OP(=O)(OCc1ccccc1)OCc1ccccc1 | >100 µg

system: Stenotrophomonas maltophilia; test: Antimicrobial activity against Stenotrophomonas maltophilia ATCC 13637 assessed clear zone in inhibition per disk by CLSI disk diffusion susceptibility assay; format: functional; details: not given

SMILES | MIC
CC(=O)Nc1ccc(/C=C/[N+](=O)[O-])cc1 | >100 µg
COc1cc(OC)c(/C=C/[N+](=O)[O-])c(OC)c1 | >100 µg
COc1ccc(/C=C/[N+](=O)[O-])cc1OP(=O)(OCc1ccccc1)OCc1ccccc1 | >100 µg

system: SF-268; test: Cytotoxicity against human SF268 cells after 48 hrs by sulforhodamine B assay; format: functional; details: not given

SMILES | GI50
CC(=O)Nc1ccc(/C=C/[N+](=O)[O-])cc1 | inactive
COc1cc(OC)c(/C=C/[N+](=O)[O-])c(OC)c1 | inactive
COc1ccc(/C=C/[N+](=O)[O-])cc1OP(=O)(OCc1ccccc1)OCc1ccccc1 | inactive

system: SF-295; test: Cytotoxicity against human SF295 cells after 48 hrs by sulforhodamine B assay; format: functional; details: SF-295, 48 h

SMILES | GI50
CC(=O)Nc1ccc(/C=C/[N+](=O)[O-])cc1 | 1.4 µg/mL (≈ 6.79 µM)
COc1cc(OC)c(/C=C/[N+](=O)[O-])c(OC)c1 | 0.45 µg/mL (≈ 1.88 µM)
COc1ccc(/C=C/[N+](=O)[O-])cc1OP(=O)(OCc1ccccc1)OCc1ccccc1 | > 10 µg/mL

system: Enterobacter cloacae; test: Antimicrobial activity against Enterobacter cloacae ATCC 13047 assessed clear zone in inhibition per disk by CLSI disk diffusion susceptibility assay; format: functional; details: not given

SMILES | MIC
CC(=O)Nc1ccc(/C=C/[N+](=O)[O-])cc1 | >100 µg
COc1cc(OC)c(/C=C/[N+](=O)[O-])c(OC)c1 | >100 µg
COc1ccc(/C=C/[N+](=O)[O-])cc1OP(=O)(OCc1ccccc1)OCc1ccccc1 | >100 µg

system: Escherichia coli; test: Antimicrobial activity against Escherichia coli ATCC 25922 assessed clear zone in inhibition per disk by CLSI disk diffusion susceptibility assay; format: functional; details: not given

SMILES | MIC
CC(=O)Nc1ccc(/C=C/[N+](=O)[O-])cc1 | >100 µg
COc1cc(OC)c(/C=C/[N+](=O)[O-])c(OC)c1 | >100 µg
COc1ccc(/C=C/[N+](=O)[O-])cc1OP(=O)(OCc1ccccc1)OCc1ccccc1 | >100 µg

system: A498; test: Cytotoxicity against human A498 cells after 48 hrs by sulforhodamine B assay; format: functional; details: not given

SMILES | GI50
COc1ccc(/C=C/[N+](=O)[O-])cc1OP(=O)(OCc1ccccc1)OCc1ccccc1 | inactive

same assay, conditions: A498, 48 h

SMILES | GI50
CC(=O)Nc1ccc(/C=C/[N+](=O)[O-])cc1 | 0.96 µg/mL (≈ 4.66 µM)
COc1cc(OC)c(/C=C/[N+](=O)[O-])c(OC)c1 | 0.36 µg/mL (≈ 1.5 µM)

system: Neisseria gonorrhoeae; test: Antimicrobial activity against Neisseria gonorrhoeae ATCC 49226 assessed clear zone of inhibition measured per disk by CLSI disk diffusion susceptibility assay; format: functional; details: not given

SMILES | MIC
CC(=O)Nc1ccc(/C=C/[N+](=O)[O-])cc1 | <6.25 µg
COc1cc(OC)c(/C=C/[N+](=O)[O-])c(OC)c1 | >100 µg
COc1ccc(/C=C/[N+](=O)[O-])cc1OP(=O)(OCc1ccccc1)OCc1ccccc1 | 0.78 µg

system: Candida albicans; test: Antimicrobial activity against Candida albicans ATCC 90028 assessed clear zone in inhibition per disk by CLSI disk diffusion susceptibility assay; format: functional; details: not given

SMILES | MIC
CC(=O)Nc1ccc(/C=C/[N+](=O)[O-])cc1 | 6.25 µg
COc1cc(OC)c(/C=C/[N+](=O)[O-])c(OC)c1 | >100 µg
COc1ccc(/C=C/[N+](=O)[O-])cc1OP(=O)(OCc1ccccc1)OCc1ccccc1 | >100 µg

system: P388; test: Cytotoxicity against mouse P388 cells after 48 hrs by sulforhodamine B assay; format: functional; details: P388, 48 h, read-out: ED50 (the source's name)

SMILES | EC50
CC(=O)Nc1ccc(/C=C/[N+](=O)[O-])cc1 | 6.2 µg/mL (≈ 30.1 µM)
COc1cc(OC)c(/C=C/[N+](=O)[O-])c(OC)c1 | 14 µg/mL (≈ 58.5 µM)
COc1ccc(/C=C/[N+](=O)[O-])cc1OP(=O)(OCc1ccccc1)OCc1ccccc1 | 2.2 µg/mL (≈ 4.83 µM)

system: Staphylococcus aureus; test: Antimicrobial activity against Staphylococcus aureus ATCC 29213 assessed clear zone in inhibition per disk by CLSI disk diffusion susceptibility assay; format: functional; details: not given

SMILES | MIC
CC(=O)Nc1ccc(/C=C/[N+](=O)[O-])cc1 | <6.25 µg
COc1cc(OC)c(/C=C/[N+](=O)[O-])c(OC)c1 | >100 µg
COc1ccc(/C=C/[N+](=O)[O-])cc1OP(=O)(OCc1ccccc1)OCc1ccccc1 | 3.12 µg

system: BXPC-3; test: Cytotoxicity against human BxPC3 cells after 48 hrs by sulforhodamine B assay; format: functional; details: not given

SMILES | GI50
CC(=O)Nc1ccc(/C=C/[N+](=O)[O-])cc1 | inactive
COc1cc(OC)c(/C=C/[N+](=O)[O-])c(OC)c1 | inactive

same assay, conditions: BXPC-3, 48 h

SMILES | GI50
COc1ccc(/C=C/[N+](=O)[O-])cc1OP(=O)(OCc1ccccc1)OCc1ccccc1 | > 10 µg/mL

system: Enterococcus faecalis; test: Antimicrobial activity against Enterococcus faecalis ATCC 29212 assessed clear zone in inhibition per disk by CLSI disk diffusion susceptibility assay; format: functional; details: not given

SMILES | MIC
CC(=O)Nc1ccc(/C=C/[N+](=O)[O-])cc1 | >100 µg
COc1cc(OC)c(/C=C/[N+](=O)[O-])c(OC)c1 | >100 µg
COc1ccc(/C=C/[N+](=O)[O-])cc1OP(=O)(OCc1ccccc1)OCc1ccccc1 | 6.25 µg

system: MCF7; test: Cytotoxicity against human MCF7 cells after 48 hrs by sulforhodamine B assay; format: functional; details: not given

SMILES | GI50
CC(=O)Nc1ccc(/C=C/[N+](=O)[O-])cc1 | inactive
COc1cc(OC)c(/C=C/[N+](=O)[O-])c(OC)c1 | inactive
COc1ccc(/C=C/[N+](=O)[O-])cc1OP(=O)(OCc1ccccc1)OCc1ccccc1 | inactive

system: NCI-H460; test: Cytotoxicity against human NCI-H460 cells after 48 hrs by sulforhodamine B assay; format: functional; details: NCI-H460, 48 h

SMILES | GI50
CC(=O)Nc1ccc(/C=C/[N+](=O)[O-])cc1 | 0.7 µg/mL (≈ 3.39 µM)
COc1cc(OC)c(/C=C/[N+](=O)[O-])c(OC)c1 | 0.32 µg/mL (≈ 1.34 µM)
COc1ccc(/C=C/[N+](=O)[O-])cc1OP(=O)(OCc1ccccc1)OCc1ccccc1 | > 10 µg/mL

system: not listed separately; test: Inhibition of tubulin polymerization; details: not given

SMILES | IC50
CC(=O)Nc1ccc(/C=C/[N+](=O)[O-])cc1 | 11 µM
COc1ccc(/C=C/[N+](=O)[O-])cc1OP(=O)(OCc1ccccc1)OCc1ccccc1 | 10 µM

system: Streptococcus pneumoniae; test: Antimicrobial activity against Streptococcus pneumoniae ATCC 6303 assessed clear zone in inhibition per disk by CLSI disk diffusion susceptibility assay; format: functional; details: not given

SMILES | MIC
CC(=O)Nc1ccc(/C=C/[N+](=O)[O-])cc1 | <6.25 µg
COc1cc(OC)c(/C=C/[N+](=O)[O-])c(OC)c1 | >100 µg
COc1ccc(/C=C/[N+](=O)[O-])cc1OP(=O)(OCc1ccccc1)OCc1ccccc1 | >100 µg

system: Micrococcus luteus; test: Antimicrobial activity against Micrococcus luteus Presque Isle 456 assessed clear zone in inhibition per disk by CLSI disk diffusion susceptibility assay; format: functional; details: not given

SMILES | MIC
CC(=O)Nc1ccc(/C=C/[N+](=O)[O-])cc1 | >100 µg
COc1cc(OC)c(/C=C/[N+](=O)[O-])c(OC)c1 | >100 µg
COc1ccc(/C=C/[N+](=O)[O-])cc1OP(=O)(OCc1ccccc1)OCc1ccccc1 | 3.12 µg

system: DU-145; test: Cytotoxicity against human DU145 cells after 48 hrs by sulforhodamine B assay; format: functional; details: not given

SMILES | GI50
CC(=O)Nc1ccc(/C=C/[N+](=O)[O-])cc1 | inactive
COc1cc(OC)c(/C=C/[N+](=O)[O-])c(OC)c1 | inactive

same assay, conditions: DU-145, 48 h

SMILES | GI50
COc1ccc(/C=C/[N+](=O)[O-])cc1OP(=O)(OCc1ccccc1)OCc1ccccc1 | > 10 µg/mL

system: SK-MEL-5; test: Cytotoxicity against human SK-MEL-5 cells after 48 hrs by sulforhodamine B assay; format: functional; details: not given

SMILES | GI50
COc1ccc(/C=C/[N+](=O)[O-])cc1OP(=O)(OCc1ccccc1)OCc1ccccc1 | inactive

same assay, conditions: SK-MEL-5, 48 h

SMILES | GI50
CC(=O)Nc1ccc(/C=C/[N+](=O)[O-])cc1 | 0.34 µg/mL (≈ 1.65 µM)
COc1cc(OC)c(/C=C/[N+](=O)[O-])c(OC)c1 | 0.61 µg/mL (≈ 2.55 µM)

system: KM-20L2; test: Cytotoxicity against human KM20L2 cells after 48 hrs by sulforhodamine B assay; format: functional; details: KM-20L2, 48 h

SMILES | GI50
CC(=O)Nc1ccc(/C=C/[N+](=O)[O-])cc1 | 1.1 µg/mL (≈ 5.33 µM)
COc1cc(OC)c(/C=C/[N+](=O)[O-])c(OC)c1 | 0.38 µg/mL (≈ 1.59 µM)
COc1ccc(/C=C/[N+](=O)[O-])cc1OP(=O)(OCc1ccccc1)OCc1ccccc1 | > 10 µg/mL

system: OVCAR-3; test: Cytotoxicity against human OVCAR-3 cells after 48 hrs by sulforhodamine B assay; format: functional; details: OVCAR-3, 48 h

SMILES | GI50
CC(=O)Nc1ccc(/C=C/[N+](=O)[O-])cc1 | 0.65 µg/mL (≈ 3.15 µM)
COc1cc(OC)c(/C=C/[N+](=O)[O-])c(OC)c1 | 0.42 µg/mL (≈ 1.76 µM)
COc1ccc(/C=C/[N+](=O)[O-])cc1OP(=O)(OCc1ccccc1)OCc1ccccc1 | > 10 µg/mL
